Measurements taken from US8436049B2, “Uses of pentamidine and related compounds” (State of Oregon Acting By and Through the State Board of …, priority 2008, dated 2013).
“Also recorded” adds a separate entry of the source.

Experiments:
Format in all cases: cell-based
[1] = system: cTNT splicing reporter in HeLa cells; experiment: cTNT splicing reporter (exon 5 inclusion) in HeLa cells with or without CUG960 plasmid; settings: for cTNT exon 5 inclusion: absence of CUG repeats; for Rescue of cTNT exon 5 inclusion: cells expressing 960 CUG repeats
Experimental: (§1) HeLa cells were grown in monolayers in DMEM with GlutaMAX™ (Gibco, Carlsbad, Calif.) and supplemented with 10% fetal bovine serum. Approximately 2.0 (±0.2)×10^5 cells were plated in 6 well plates and transfected 18-20 hours later at 70-90% confluency. 1 μg of plasmid was transfected into each well of cells, using 5 μL of […] (Invitrogen) according to the manufacturer's protocols. For co-transfection, 1 μg of total plasmid was transfected, at 500 ng of each construct. Test compounds were added 4 hours after transfection, when the media was changed. Cells were harvested 18-22 hours after transfection using TrypLE™ reagent (Gibco).
(§2) Immediately following harvesting, RNA was isolated from the cell pellets using an RNeasy® kit (Qiagen, Valencia, Calif.). 500 ng of isolated RNA was DNased with RQI DNase (Promega, Madison, Wis.) according to manufacture's protocol. 100 ng of DNAsed RNA was reverse transcribed with Superscript® II (Invitrogen, Carlsbad, Calif.) and a cTNT-specific reverse primer according to manufacturer's protocols. 30 ng of the reverse transcription reaction was subjected to 22-25 rounds of PCR amplification using cTNT specific primers spiked with a forward primer 5′ end-labeled with [γ-^32P]ATP. Similar methods were used to reverse transcribe and amplify IR and PLEKHH2. […] The resulting PCR products were run on a 6% (19:1) polyacrylamide denaturing gel. The gel was subsequently autoradiographed and quantitation of the radioactive bands was performed using ImageQuant® software.
(§3) The following primer pairs were used. For the cTNT minigene, the forward primer was […] (SEQ ID NO: 1), and the reverse primer was […] (SEQ ID NO: 2). For the IR minigene, the forward primer was […] (SEQ ID NO: 3), and the reverse primer was […] (SEQ ID NO: 4). The underlined sections are for cloning purposes. For the PLEKHH2 minigene, the forward primer was […] (SEQ ID NO: 5), and the reverse primer was […] (SEQ ID NO: 6).
The ability of pentamidine to alter the splicing defects observed in a cell-based model for DM was tested. This was accomplished in a system using cells transformed with a plasmid expressing 960 CUG repeats where the expression of these CUG repeats causes splicing defects similar to those observed in DM cells and DM subjects (Savkur et al., Nature Genet. 29:40-47, 2001).

[2] = system: IR splicing reporter in HeLa cells; experiment: IR splicing reporter (exon 11 inclusion) in HeLa cells with or without CUG960 plasmid; settings: for Rescue of IR reporter mis-splicing: cells expressing 960 CUG repeats
Experimental: as §1, §2, §3
The ability of pentamidine to alter the splicing defects observed in a cell-based model for DM was tested. […]

[3] = system: CUG960 RNA nuclear foci / MBNL-GFP in HeLa cells; experiment: CUG foci formation and MBNL-GFP sequestration in HeLa cells transfected with MBNL-GFP and CUG960; settings: 50 μM
Experimental: HeLa cells were plated in 6 well plates onto coverslips pre-treated with poly-L-lysine. Cells were transfected as described in Example 3. For transfection, 50 ng of MBNL-eGFP plasmid and 500 ng of CUG960 plasmid were transfected for each experiment. A total of 1 μg of plasmid DNA was transfected, with the additional amount being empty pcDNA3 vector. After transfection, pentamidine was added and the cells were fixed 16 hours later.
Cells were fixed for 15 min at room temperature (RT) with 4% paraformaldehyde and washed 5 times for 2 min in 1×PBS at RT. Cells were stored at 4° C., if not probed immediately. For fluorescence in situ hybridization, cells were permeabilized with 2% pre-chilled acetone in 1×PBS, at RT for 5 min. Cells were pre-washed with 30% formamide, 2×SSC for 10 min at RT. Cells were then probed for 2 hours at 37° C., with 1 ng/μl Cy3 CAG10 probe (Integrated DNA Technologies, Coralville, Iowa) in 30% formamide, 2×SSC, 0.02% BSA, 66 μg/ml yeast tRNA, 2 mM vanadyl complex. The cells were washed for 30 min in 30% formamide, 2×SSC at 42° C., then with 1×SSC for 30 min at RT. […] MBNL-eGFP was visualized using GFP fluorescence, exciting from 450-490 nm and visualizing at 520 nm. […]
Cells were scored by eye with the following criteria. […] 201 cells were scored for the MBNL-GFP and CUG960 double transfection. 242 cells treated with pentamidine (50 μM) were scored. […]

Compound: N=C(N)c1ccc(OCCCCCOc2ccc(C(=N)N)cc2)cc1 [pentamidine]
- cTNT exon 5 inclusion ([1]; 25 μM): 62%
- Rescue of cTNT exon 5 inclusion ([1]; 25 μM): no effect
- Rescue of cTNT exon 5 inclusion ([1]; 50 μM): partial rescue; also recorded: partially rescue the cTNT mis-splicing
- cTNT exon 5 inclusion ([1]; 75 μM): 30%
- Rescue of cTNT exon 5 inclusion ([1]; 75 μM): full recovery
- Concentration giving complete rescue of cTNT missplicing ([1]; presence of the CUG960 construct): 75 µM
- Rescue of IR reporter mis-splicing ([2]; 25 μM): partially rescued
- Rescue of IR reporter mis-splicing ([2]; 50 μM): fully rescued; also recorded: fully rescue the IR mis-splicing
- Effect on splicing of the IR reporter ([2]; cells lacking the CUG repeats): did not affect the splicing of the IR reporter
- Characteristics of CUG RNA foci [3]: the foci became increasingly more diffuse
- MBNL sequestration to foci [3]: partially relieved in many cells
